Data published in the NIST ThermoML archive (doi:10.1021/je200030k).
± gives the expanded uncertainty stated by the source.

Assays:
[1] = refractive index (Na D-line) (dimensionless); xn = mol fraction of the nth substance listed; conditions: 101 kPa, Liquid, Standard Abbe refractometry
[2] = xn = mol fraction of the nth substance listed; conditions: 101 kPa, Liquid, Vibrating tube method

CCCCn1cc[n+](C)c1.NCC(=O)[O-] [1-butyl-3-methylimidazolium glycinate] + CC(C)O
refractive index ([1]; 298.15 K, x1 = 0.0965): 1.405 ± 0.002 | refractive index ([1]; 298.15 K, x1 = 0.1992): 1.43 ± 0.002 | refractive index ([1]; 298.15 K, x1 = 0.3059): 1.451 ± 0.002 | refractive index ([1]; 298.15 K, x1 = 0.3977): 1.466 ± 0.002 | refractive index ([1]; 298.15 K, x1 = 0.5115): 1.48 ± 0.002 | refractive index ([1]; 298.15 K, x1 = 0.5868): 1.488 ± 0.002 | refractive index ([1]; 298.15 K, x1 = 0.7052): 1.499 ± 0.002 | refractive index ([1]; 298.15 K, x1 = 0.8117): 1.509 ± 0.002 | refractive index ([1]; 298.15 K, x1 = 0.8775): 1.514 ± 0.002 | refractive index ([1]; 303.15 K, x1 = 0.0965): 1.404 ± 0.002 | refractive index ([1]; 303.15 K, x1 = 0.1992): 1.429 ± 0.002 | refractive index ([1]; 303.15 K, x1 = 0.3059): 1.45 ± 0.002 | refractive index ([1]; 303.15 K, x1 = 0.3977): 1.464 ± 0.002 | refractive index ([1]; 303.15 K, x1 = 0.5115): 1.478 ± 0.002 | refractive index ([1]; 303.15 K, x1 = 0.5868): 1.487 ± 0.002 | refractive index ([1]; 303.15 K, x1 = 0.7052): 1.499 ± 0.002 | refractive index ([1]; 303.15 K, x1 = 0.8117): 1.508 ± 0.002 | refractive index ([1]; 303.15 K, x1 = 0.8775): 1.513 ± 0.002 | refractive index ([1]; 308.15 K, x1 = 0.0965): 1.403 ± 0.002 | refractive index ([1]; 308.15 K, x1 = 0.1992): 1.429 ± 0.002 | refractive index ([1]; 308.15 K, x1 = 0.3059): 1.449 ± 0.002 | refractive index ([1]; 308.15 K, x1 = 0.3977): 1.463 ± 0.002 | refractive index ([1]; 308.15 K, x1 = 0.5115): 1.477 ± 0.002 | refractive index ([1]; 308.15 K, x1 = 0.5868): 1.486 ± 0.002 | refractive index ([1]; 308.15 K, x1 = 0.7052): 1.497 ± 0.002 | refractive index ([1]; 308.15 K, x1 = 0.8117): 1.505 ± 0.002 | refractive index ([1]; 308.15 K, x1 = 0.8775): 1.51 ± 0.002 | refractive index ([1]; 313.15 K, x1 = 0.0965): 1.402 ± 0.002 | refractive index ([1]; 313.15 K, x1 = 0.1992): 1.427 ± 0.002 | refractive index ([1]; 313.15 K, x1 = 0.3059): 1.449 ± 0.002 | refractive index ([1]; 313.15 K, x1 = 0.3977): 1.462 ± 0.002 | refractive index ([1]; 313.15 K, x1 = 0.5115): 1.477 ± 0.002 | refractive index ([1]; 313.15 K, x1 = 0.5868): 1.485 ± 0.002 | refractive index ([1]; 313.15 K, x1 = 0.7052): 1.497 ± 0.002 | refractive index ([1]; 313.15 K, x1 = 0.8117): 1.506 ± 0.002 | refractive index ([1]; 313.15 K, x1 = 0.8775): 1.511 ± 0.002 | mass density ([2]; 298.15 K, x1 = 0.0965): 877.6 ± 1 kg/m3 | mass density ([2]; 298.15 K, x1 = 0.1992): 957.8 ± 1 kg/m3 | mass density ([2]; 298.15 K, x1 = 0.3059): 1024.4 ± 1 kg/m3 | mass density ([2]; 298.15 K, x1 = 0.3977): 1071.9 ± 1 kg/m3 | mass density ([2]; 298.15 K, x1 = 0.5115): 1121.6 ± 1 kg/m3 | mass density ([2]; 298.15 K, x1 = 0.5868): 1149.9 ± 1 kg/m3 | mass density ([2]; 298.15 K, x1 = 0.7052): 1188.4 ± 1 kg/m3 | mass density ([2]; 298.15 K, x1 = 0.8117): 1217.5 ± 1.1 kg/m3 | mass density ([2]; 303.15 K, x1 = 0.0965): 870.7 ± 1 kg/m3 | mass density ([2]; 303.15 K, x1 = 0.1992): 951.4 ± 1 kg/m3 | mass density ([2]; 303.15 K, x1 = 0.3059): 1018.6 ± 1 kg/m3 | mass density ([2]; 303.15 K, x1 = 0.3977): 1066.5 ± 1 kg/m3 | mass density ([2]; 303.15 K, x1 = 0.5115): 1116.8 ± 1 kg/m3 | mass density ([2]; 303.15 K, x1 = 0.5868): 1145.4 ± 1 kg/m3 | mass density ([2]; 303.15 K, x1 = 0.7052): 1184.3 ± 1 kg/m3 | mass density ([2]; 303.15 K, x1 = 0.8117): 1213.9 ± 1.1 kg/m3 | mass density ([2]; 308.15 K, x1 = 0.0965): 863 ± 1 kg/m3 | mass density ([2]; 308.15 K, x1 = 0.1992): 944.2 ± 1 kg/m3 | mass density ([2]; 308.15 K, x1 = 0.3059): 1012 ± 1 kg/m3 | mass density ([2]; 308.15 K, x1 = 0.3977): 1060.6 ± 1 kg/m3 | mass density ([2]; 308.15 K, x1 = 0.5115): 1111.4 ± 1 kg/m3 | mass density ([2]; 308.15 K, x1 = 0.5868): 1140.5 ± 1 kg/m3 | mass density ([2]; 308.15 K, x1 = 0.7052): 1180 ± 1 kg/m3 | mass density ([2]; 308.15 K, x1 = 0.8117): 1210 ± 1.1 kg/m3 | mass density ([2]; 308.15 K, x1 = 0.8775): 1226.4 ± 1.1 kg/m3 | mass density ([2]; 313.15 K, x1 = 0.0965): 854.7 ± 1 kg/m3 | mass density ([2]; 313.15 K, x1 = 0.1992): 936.6 ± 1 kg/m3 | mass density ([2]; 313.15 K, x1 = 0.3059): 1005 ± 1 kg/m3 | mass density ([2]; 313.15 K, x1 = 0.3977): 1054.1 ± 1 kg/m3 | mass density ([2]; 313.15 K, x1 = 0.5115): 1105.8 ± 1 kg/m3 | mass density ([2]; 313.15 K, x1 = 0.5868): 1135.3 ± 1 kg/m3 | mass density ([2]; 313.15 K, x1 = 0.7052): 1175.4 ± 1 kg/m3 | mass density ([2]; 313.15 K, x1 = 0.8117): 1205.9 ± 1.1 kg/m3

CCCCn1cc[n+](C)c1.NCC(=O)[O-] [1-butyl-3-methylimidazolium glycinate] + CCCCO
refractive index ([1]; 298.15 K, x1 = 0.0972): 1.418 ± 0.002 | refractive index ([1]; 298.15 K, x1 = 0.2125): 1.438 ± 0.002 | refractive index ([1]; 298.15 K, x1 = 0.3041): 1.454 ± 0.002 | refractive index ([1]; 298.15 K, x1 = 0.3849): 1.465 ± 0.002 | refractive index ([1]; 298.15 K, x1 = 0.4929): 1.478 ± 0.002 | refractive index ([1]; 298.15 K, x1 = 0.6103): 1.49 ± 0.002 | refractive index ([1]; 298.15 K, x1 = 0.6923): 1.497 ± 0.002 | refractive index ([1]; 298.15 K, x1 = 0.8037): 1.506 ± 0.002 | refractive index ([1]; 298.15 K, x1 = 0.9129): 1.514 ± 0.002 | refractive index ([1]; 303.15 K, x1 = 0.0972): 1.417 ± 0.002 | refractive index ([1]; 303.15 K, x1 = 0.2125): 1.438 ± 0.002 | refractive index ([1]; 303.15 K, x1 = 0.3041): 1.452 ± 0.002 | refractive index ([1]; 303.15 K, x1 = 0.3849): 1.463 ± 0.002 | refractive index ([1]; 303.15 K, x1 = 0.4929): 1.476 ± 0.002 | refractive index ([1]; 303.15 K, x1 = 0.6103): 1.488 ± 0.002 | refractive index ([1]; 303.15 K, x1 = 0.6923): 1.496 ± 0.002 | refractive index ([1]; 303.15 K, x1 = 0.8037): 1.505 ± 0.002 | refractive index ([1]; 303.15 K, x1 = 0.9129): 1.513 ± 0.002 | refractive index ([1]; 308.15 K, x1 = 0.0972): 1.415 ± 0.002 | refractive index ([1]; 308.15 K, x1 = 0.2125): 1.437 ± 0.002 | refractive index ([1]; 308.15 K, x1 = 0.3041): 1.45 ± 0.002 | refractive index ([1]; 308.15 K, x1 = 0.3849): 1.461 ± 0.002 | refractive index ([1]; 308.15 K, x1 = 0.4929): 1.474 ± 0.002 | refractive index ([1]; 308.15 K, x1 = 0.6103): 1.487 ± 0.002 | refractive index ([1]; 308.15 K, x1 = 0.6923): 1.495 ± 0.002 | refractive index ([1]; 308.15 K, x1 = 0.8037): 1.504 ± 0.002 | refractive index ([1]; 308.15 K, x1 = 0.9129): 1.512 ± 0.002 | refractive index ([1]; 313.15 K, x1 = 0.0972): 1.413 ± 0.002 | refractive index ([1]; 313.15 K, x1 = 0.2125): 1.435 ± 0.002 | refractive index ([1]; 313.15 K, x1 = 0.3041): 1.45 ± 0.002 | refractive index ([1]; 313.15 K, x1 = 0.3849): 1.461 ± 0.002 | refractive index ([1]; 313.15 K, x1 = 0.4929): 1.474 ± 0.002 | refractive index ([1]; 313.15 K, x1 = 0.6103): 1.486 ± 0.002 | refractive index ([1]; 313.15 K, x1 = 0.6923): 1.495 ± 0.002 | refractive index ([1]; 313.15 K, x1 = 0.8037): 1.503 ± 0.002 | refractive index ([1]; 313.15 K, x1 = 0.9129): 1.51 ± 0.002 | mass density ([2]; 298.15 K, x1 = 0.0972): 885.2 ± 1 kg/m3 | mass density ([2]; 298.15 K, x1 = 0.2125): 962.5 ± 1 kg/m3 | mass density ([2]; 298.15 K, x1 = 0.3041): 1014.1 ± 1 kg/m3 | mass density ([2]; 298.15 K, x1 = 0.3849): 1054.3 ± 1 kg/m3 | mass density ([2]; 298.15 K, x1 = 0.4929): 1101.4 ± 1 kg/m3 | mass density ([2]; 298.15 K, x1 = 0.6103): 1146.3 ± 1 kg/m3 | mass density ([2]; 298.15 K, x1 = 0.6923): 1174.2 ± 1 kg/m3 | mass density ([2]; 298.15 K, x1 = 0.8037): 1208.4 ± 1.1 kg/m3 | mass density ([2]; 303.15 K, x1 = 0.0972): 881.7 ± 1 kg/m3 | mass density ([2]; 303.15 K, x1 = 0.2125): 959.1 ± 1 kg/m3 | mass density ([2]; 303.15 K, x1 = 0.3041): 1010.9 ± 1 kg/m3 | mass density ([2]; 303.15 K, x1 = 0.3849): 1051.2 ± 1 kg/m3 | mass density ([2]; 303.15 K, x1 = 0.4929): 1098.4 ± 1 kg/m3 | mass density ([2]; 303.15 K, x1 = 0.6103): 1143.3 ± 1 kg/m3 | mass density ([2]; 303.15 K, x1 = 0.6923): 1171.2 ± 1 kg/m3 | mass density ([2]; 303.15 K, x1 = 0.8037): 1205.4 ± 1.1 kg/m3 | mass density ([2]; 308.15 K, x1 = 0.0972): 878 ± 1 kg/m3 | mass density ([2]; 308.15 K, x1 = 0.2125): 955 ± 1 kg/m3 | mass density ([2]; 308.15 K, x1 = 0.3041): 1007 ± 1 kg/m3 | mass density ([2]; 308.15 K, x1 = 0.3849): 1048 ± 1 kg/m3 | mass density ([2]; 308.15 K, x1 = 0.4929): 1095 ± 1 kg/m3 | mass density ([2]; 308.15 K, x1 = 0.6103): 1140 ± 1 kg/m3 | mass density ([2]; 308.15 K, x1 = 0.6923): 1168 ± 1 kg/m3 | mass density ([2]; 308.15 K, x1 = 0.8037): 1202 ± 1 kg/m3 | mass density ([2]; 308.15 K, x1 = 0.9129): 1232 ± 1 kg/m3 | mass density ([2]; 313.15 K, x1 = 0.0972): 874 ± 1 kg/m3 | mass density ([2]; 313.15 K, x1 = 0.2125): 952 ± 1 kg/m3 | mass density ([2]; 313.15 K, x1 = 0.3041): 1004 ± 1 kg/m3 | mass density ([2]; 313.15 K, x1 = 0.3849): 1044 ± 1 kg/m3 | mass density ([2]; 313.15 K, x1 = 0.4929): 1092 ± 1 kg/m3 | mass density ([2]; 313.15 K, x1 = 0.6103): 1137 ± 1 kg/m3 | mass density ([2]; 313.15 K, x1 = 0.6923): 1165 ± 1 kg/m3 | mass density ([2]; 313.15 K, x1 = 0.8037): 1199 ± 1 kg/m3
